The text below walks through data of US20080119456A1, “Substituted Thiazoleacetic Acid as Crth2 Ligands” (priority 2004, published 2008).

pIC50: −log10 of the molar value.

One experiment deals with T1, human CRTH2 receptor (Homo sapiens, UniProt Q9Y5Y4, V204A).
T1 construct: expressed in transfected cells; host or cells: COS-7 cells, transient, pcDNA3.1(+)
T1 sequence (Q9Y5Y4 1-395 V204A): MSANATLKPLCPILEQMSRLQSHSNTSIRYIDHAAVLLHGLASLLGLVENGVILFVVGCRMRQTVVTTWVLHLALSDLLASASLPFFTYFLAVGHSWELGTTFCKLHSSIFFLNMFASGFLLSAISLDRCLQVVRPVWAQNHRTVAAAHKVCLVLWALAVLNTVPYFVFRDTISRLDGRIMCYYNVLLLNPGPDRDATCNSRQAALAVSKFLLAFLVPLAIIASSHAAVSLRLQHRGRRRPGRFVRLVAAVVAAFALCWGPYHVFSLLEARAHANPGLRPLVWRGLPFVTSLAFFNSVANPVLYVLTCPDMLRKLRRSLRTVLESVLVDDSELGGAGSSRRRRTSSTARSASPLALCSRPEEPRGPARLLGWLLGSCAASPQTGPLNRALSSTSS
The experiment can be described thus: Receptor binding assay: [3H]PGD2 competition on whole COS-7 cells transfected with CRTH2. The settings on record: 0.1 nM [3H]PGD2, whole cells, 3 h at 4° C. An excerpt: (§1) Generation/origin of the cDNA Constructs. The coding sequence of the human CRTH2 receptor (genbank accession no NM_004778) was amplified by PCR from a human hippocampus cDNA library and inserted into the pcDNA3.1(+) expression vector (invitrogen) via 5′ HindIII and 3′ EcoRI. To generate a CRTH2-Renilla luciferase (CRTH2-Rluc) fusion protein, the CRTH2 coding sequence without a STOP codon and Rluc were amplified, fused in frame by PCR and subcloned into the pcDNA3.1(+)Zeo expression vector (invitrogen). Human β-arrestin2 (β-arr2) N-terminally tagged with GFP^2 (βarr2-GFP^2) and Renilla luciferase were purchased from BioSignal Packard Inc, (Montreal, Canada). The sequence identity of the construct was verified by restriction endonuclease digests and sequencing in both directions on an ABI Prism (Applied Biosystems, Foster City, Calif.).
(§2) Cell Culture and Transfection. COS-7 cells were grown in Dulbecco's modified Eagle's medium (DMEM) 1885 supplemented with 10% fetal bovine serum, 100 units/ml penicillin, […] streptomycin, and kept at 37° C. in a 10% CO2 atmosphere. HEK293 cells were maintained in Minimum Essential medium (MEM) supplemented with 10% (v/v) heat inactivated fetal calf serum (HIFCS), 2 mM Glutamax™-I, 1% non essential amino acids (NEAA), 1% sodium pyruvate and 10 μg/ml gentamicin. For binding experiments, COS7 cells were transiently transfected with the CRTH2 receptor using a calcium phosphate-DNA coprecipitation method with the addition of chloroquine (as described by Hoist et al., 2001*). To perform the functional Bioluminescence Resonance Energy Transfer (BRET) assays, a HEK293 cell clone stably expressing βarr2-GFP^2 and CRTH2-Rluc was generated (CRTH2-HEK293 cells).
Binding assay. 24 h after transfection COS-7 cells were seeded into 96 well plates at a density of 30.000 cells/well. Competition binding experiments on whole cells were then performed about 18-24 h later using 0.1 nM [^3H]PGD2 (NEN, 172 Ci/mmol) in a binding buffer consisting of HBSS (GIBCO) and 10 mM HEPES. Competing ligands were diluted in DMSO which was kept constant at 1% (v/v) of the final incubation volume. Total and nonspecific binding were determined in the absence and presence of 10 μM PGD2. Binding reactions were routinely conducted for 3 h at 4° C. and terminated by 2 washes (100 μl each) with ice cold binding buffer. Radioactivity was determined by liquid scintillation counting in a TOPCOUNTER (Packard) following over night incubation in Microscint 20. Stable HEK293 cells were seeded at a density of 30.000 cells/well 18-24 h prior to the binding assay which was performed essentially as described for COS7 cells above. Determinations were made in duplicates.
(§3) Curve analysis was performed with the GraphPadPrism software 3.0 (Graphpad Prism Inc., San Diego, USA) and IC50 values were calculated as a measure of the antagonistic potencies.

Another experiment has as its target T2, human CRTH2-Rluc (Homo sapiens, UniProt Q9Y5Y4, V204A).
T2 construct: expressed in transfected cells
T2 sequence (Q9Y5Y4 1-395 V204A): T1 sequence (Q9Y5Y4 1-395 V204A)
In words: Functional antagonist BRET assay on HEK293 cells stably expressing CRTH2-Rluc and GFP2-β-arr2. It is filed as cell-based. The settings on record: antagonist incubated 15 minutes before agonist, read-out: Antag. IC50.
Source text: as §1, §2
BRET assay. Functional BRET assays were performed on HEK293 cells stably expressing human CRTH2-Rluc and GFP^2-β-arr2. Prior to their use in the BRET assay cells were detached and re-suspended in D-PBS with 1000 mg/L L-Glucose at a density of 2×10^6 cells/mL. DeepBlueC™ was diluted to 50 μM in D-PBS with 1000 mg/L L-Glucose (light sensitive). 100 μL of cell suspension was transferred to wells in a 96-well microplate (white OptiPlate) and placed in the Mithras LB 940 instrument (BERTHOLD TECHNOLOGIES, Bad Wildbad, Germany). 12 μL/well agonist was then injected by injector 1 and 10 μL/well DeepBlueC™ was injected simultaneously by injector 2. Five seconds after the injections the light output from the well was measured sequentially at 400 nm and 515 nm, and the BRET signal (mBRET ratio) was calculated by the ratio of the fluorescence emitted by GFP^2-β-arr2 (515 nm) over the light emitted by the receptor-Rluc (400 nm). Antagonists were added before placing the microplates into the Mithras LB 940 and allowed to incubate for 15 minutes prior to the addition of agonist and DeepBlueC™. Compounds were dissolved in DMSO and the final DMSO concentration was kept constant at 1% in the assay.
as §3

As usually defined, the pIC50 is the IC50 on a negative log10 scale, so that one unit is a factor of ten. Regarding `O=C(O)Cc1sc(C(c2ccccc2)c2ccc(F)c(F)c2)nc1-c1ccc(F)cc1` (stereo not shown) [Compound A18, [2-[(3,4-Difluoro-phenyl)-phenyl-methyl]-4-(4-fluoro-phenyl)-thiazol-5-yl]-acetic acid], the pIC50 at human CRTH2 receptor and at human CRTH2-Rluc was more than 6.30 each time.

`O=C(O)Cc1sc(C(NC(=O)c2ccc(C(F)(F)F)cc2)c2ccccc2)nc1-c1ccc(F)cc1` (stereo not shown) [Compound A19, {4-(4-Fluoro-phenyl)-2-[phenyl-(4-trifluoromethyl-benzoylamino)-methyl]-thiazol-5-yl}-acetic acid]: the negative-log IC50 (pIC50) at human CRTH2 receptor is more than 6.30; on human CRTH2-Rluc it was less than 5.30.

In the case of `COc1ccc(C(c2ccc(OC)cc2)c2nc(-c3ccc(F)cc3)c(CC(=O)O)s2)cc1` [Compound A20, [2-[Bis-(4-methoxy-phenyl)-methyl]-4-(4-fluoro-phenyl)-thiazol-5-yl]-acetic acid], the pIC50 at human CRTH2 receptor and on human CRTH2-Rluc was more than 6.30 throughout.

For the compound `O=C(O)Cc1sc(C(c2ccccc2)c2ccccc2)nc1-c1ccc(Oc2ccccc2)cc1` [Compound A21, [2-Benzhydryl-4-(4-phenoxy-phenyl)-thiazol-5-yl]-acetic acid], the negative-log IC50 (pIC50) on human CRTH2 receptor was more than 6.30; on human CRTH2-Rluc it was 5.30 to 6.30.

Take `O=C(O)Cc1sc(C(c2ccccc2)c2ccc(O)cc2)nc1-c1ccc(F)cc1` (stereo not shown) [Compound A22, {4-(4-Fluoro-phenyl)-2-[(4-hydroxy-phenyl)-phenyl-methyl]-thiazol-5-yl}-acetic acid]: the pIC50 at human CRTH2 receptor and at human CRTH2-Rluc was more than 6.30 in each case.

Turning to `O=C(O)Cc1sc(C(c2ccccc2)c2ccccc2)nc1-c1cccc(F)c1` [Compound A23, [2-Benzhydryl-4-(3-fluoro-phenyl)-thiazol-5-yl]-acetic acid], the negative logarithm of the IC50 (pIC50) on human CRTH2 receptor and at human CRTH2-Rluc was more than 6.30 throughout.

Turning to `O=C(O)Cc1sc(C(c2ccccc2)c2ccccc2)nc1-c1ccc(C(F)(F)F)cc1` [Compound A24, [2-Benzhydryl-4-(4-trifluoromethyl-phenyl)-thiazol-5-yl]-acetic acid], the pIC50 was 5.30 to 6.30 at human CRTH2 receptor and less than 5.30 at human CRTH2-Rluc.

As to `O=C(O)Cc1sc(C(c2ccc(F)cc2)c2ccc(F)cc2)nc1-c1ccc(F)c(F)c1` [Compound A25, [2-[Bis-(4-fluoro-phenyl)-methyl]-4-(3,4-difluoro-phenyl)-thiazol-5-yl]-acetic acid], the negative-log IC50 (pIC50) at human CRTH2 receptor and at human CRTH2-Rluc was more than 6.30 each time.

For `O=C(O)Cc1sc(C(c2ccccc2)c2ccccc2)nc1-c1ccc(F)c(F)c1` [Compound A26, [2-Benzhydryl-4-(3,4-difluoro-phenyl)-thiazol-5-yl]-acetic acid], the pIC50 on human CRTH2 receptor and at human CRTH2-Rluc was more than 6.30 in each case.

As for `O=C(O)Cc1sc(C(c2ccc(F)cc2)c2ccc(F)cc2)nc1-c1cccc(F)c1` [Compound A27, [2-[Bis-(4-fluoro-phenyl)-methyl]-4-(3-fluoro-phenyl)-thiazol-5-yl]-acetic acid], the pIC50 at human CRTH2 receptor and on human CRTH2-Rluc was more than 6.30 throughout.

In the case of `O=C(O)Cc1sc(C(c2ccccc2)c2ccccn2)nc1-c1ccc(Cl)cc1` (stereo not shown) [Compound A28, [4-(4-Chloro-phenyl)-2-(phenyl-pyridin-2-yl-methyl)-thiazol-5-yl]-acetic acid], the pIC50 at human CRTH2 receptor is more than 6.30; at human CRTH2-Rluc, 5.30 to 6.30.

For the compound `COc1ccc(C(c2ccccn2)c2nc(-c3ccc(Cl)cc3)c(CC(=O)O)s2)cc1` (stereo not shown) [Compound A31, {4-(4-Chloro-phenyl)-2-[(4-methoxy-phenyl)-pyridin-2-yl-methyl]-thiazol-5-yl}-acetic acid], the pIC50 at human CRTH2 receptor and at human CRTH2-Rluc was more than 6.30 throughout.

Consider `O=C(O)Cc1sc(Cc2ccccc2-c2ccccc2)nc1-c1ccc(Cl)cc1` [Compound A34, [2-Biphenyl-2-ylmethyl-4-(4-chloro-phenyl)-thiazol-5-yl]-acetic acid], for which the negative-log IC50 (pIC50) at human CRTH2 receptor and at human CRTH2-Rluc was more than 6.30 in each case.

As to `O=C(O)Cc1sc(Cc2ccccc2-c2ccccc2)nc1-c1ccc(F)cc1` [Compound A36, [2-Biphenyl-2-ylmethyl-4-(4-fluoro-phenyl)-thiazol-5-yl]-acetic acid], the pIC50 at human CRTH2 receptor and on human CRTH2-Rluc was more than 6.30 in each case.

On to `COc1cccc(-c2ccccc2Cc2nc(-c3ccc(F)cc3)c(CC(=O)O)s2)c1` [Compound A37, [4-(4-Fluoro-phenyl)-2-(3′-methoxy-biphenyl-2-ylmethyl)-thiazol-5-yl]-acetic acid], for which the pIC50 on human CRTH2 receptor and at human CRTH2-Rluc was more than 6.30 throughout.

On to `N#Cc1ccc(-c2ccccc2Cc2nc(-c3ccc(F)cc3)c(CC(=O)O)s2)cc1` [Compound A38, [2-(4′-Cyano-biphenyl-2-ylmethyl)-4-(4-fluoro-phenyl)-thiazol-5-yl]-acetic acid], for which the negative logarithm of the IC50 (pIC50) at human CRTH2 receptor and at human CRTH2-Rluc was more than 6.30 each time.

With `COc1ccc(-c2ccccc2Cc2nc(-c3ccc(F)cc3)c(CC(=O)O)s2)cc1` [Compound A40, [4-(4-Fluoro-phenyl)-2-(4′-methoxy-biphenyl-2-ylmethyl)-thiazol-5-yl]-acetic acid], the negative-log IC50 (pIC50) at human CRTH2 receptor and on human CRTH2-Rluc was more than 6.30 each time.

`O=C(O)Cc1sc(Cc2ccccc2-c2ccc3c(c2)OCO3)nc1-c1ccc(F)cc1` [Compound A42, [2-(2-Benzo[1,3]dioxol-5-yl-benzyl)-4-(4-fluoro-phenyl)-thiazol-5-yl]-acetic acid]: the negative logarithm of the IC50 (pIC50) at human CRTH2 receptor and on human CRTH2-Rluc was more than 6.30 each time.

With `CC(=O)N1CCC(c2ccccc2)(c2nc(-c3ccc(Cl)cc3)c(CC(=O)O)s2)CC1` [Compound A45], the pIC50 at human CRTH2 receptor is more than 6.30; at human CRTH2-Rluc, 5.30 to 6.30.

`O=C(O)Cc1sc(C2(c3ccccc3)CCNCC2)nc1-c1ccc(Cl)cc1` [Compound A46, [4-(4-Chloro-phenyl)-2-(4-phenyl-piperidin-4-yl)-thiazol-5-yl]-acetic acid]: the pIC50 was 5.30 to 6.30 on human CRTH2 receptor and less than 5.30 at human CRTH2-Rluc.
